Tested on: 429239-143-T-J1-PDC complex spheroid viability
Experiment: Anticancer human tumor 429239-143-T-J1-PDC patient-derived small cell lung carcinoma cell line growth inhibition [POLQ]
Conditions: for IC50: curve of first compound; for viability, T/C: stronger effect = lower value
Description: Multicellular complex tumor spheroid response to Polymerase (POL) inhibitors (novobiocin, ART-558, RP6685) in combination with a variety of drugs and investigational agents in selected tumor cell lines
The POL inhibitors (novobiocin, ART-558, and RP6685) were evaluated both individually and in combination with standard of care and investigational anticancer small molecules within a complex spheroid model of solid tumors. . Complex spheroids include a stromal component modeled by human endothelial cells (HUVEC) and fibroblasts modeled by human mesenchymal stem cells (MSCs). The concentration ranges selected for each drug and investigational agent were based upon clinically achievable concentrations if the clinical Cmax of the agent was known.
Compounds. The drugs and investigational agents: novobiocin (NSC847541), ART-558 (NSC835418), RP-6685 (NSC848927), peposertib (NSC802822), ceralasertib (NSC780249), elimusertib (NSC800525), camonsertib (NSC841442), AZD-1390 (NSC803789), olaparib (NSC753686), talazoparib (NSC767125), rucaparib (NSC756644), sotorasib (NSC818433), MRTX-1133 (NSC836407), SN-38 (NSC673596), topotecan (NSC609699), epotoside (NSC141540), doxorubicin (NSC123127), gemcitabine (NSC613327), 5-fluorouracil (NSC19893), paclitaxel (NSC125973), vemurafenib (NSC761431), MSA-2 (NSC828583), SN-011 (NSC837082), adavosertib (NSC754352), prexasertib (NSC758257), carboplatin (NSC241240) and oxaliplatin (NSC266046), were obtained from the National Cancer Institute (NCI) Developmental Therapeutics Program Chemical Repository (21). The FDA-approved anticancer drug set is available from the Developmental Therapeutics Program at https://dtp.cancer.gov/organization/dscb/obtaining/. […] The stock solutions were prepared in dimethyl sulfoxide (DMSO, Sigma-Aldrich, St. Louis, MO, cat. D2650), except for the platinum compounds which were prepared in saline (Quality Biological, Gaithersburg, MD, cat. 114-055-101), at 800-fold the tested concentration and stored at -70 degrees C prior to their use. All drugs and investigational agents were tested over a range starting from a high concentration at or near the clinical Cmax and decreasing in half-log increments. If the clinical Cmax for an agent had not been determined, the highest concentration tested was 10 microM, except for SN-38, which was tested at a high concentration of 1 microM.
Cell Culture. All cells were maintained in an incubator at 37 degrees C and 5% CO2 with 95% humidity. The PDC lines were cultured according to standard operating procedures established by the NCI PDMR (https://pdmr.cancer.gov). Table 3 of the manuscript, lists the cell lines along with the number of the three cell types plated to form the mct-spheroids and media for tumor cell growth. After thawing, all PDC lines, except 997537-175-T-J1-PDC and 415267-285-R-J2-PDC, were cultured in Matrigel-coated flasks prepared with a working solution of 1X Ham's F-12 nutrient mix, without supplementation (Thermo Fisher Scientific, cat. 11765054), 100 U/mL penicillin-streptomycin (Thermo Fisher Scientific, cat. 15140122), and 2.5% Matrigel (Corning Inc., Corning, NY, cat. 354248) for the first three passages. The two PDC lines 997537-175-T-J1-PDC and 415267-285-R-J2-PDC were cultured on uncoated flasks. The 857933-349-R-J2-PDC line was cultured in 6C/Colon 1B media containing advanced DMEM/F-12 (Thermo Fisher Scientific, cat. 12634028), 10 mM HEPES (Thermo Fisher Scientific, cat. 15630080), 1X GlutaMAX supplement (Thermo Fisher Scientific, cat. 35050061), 0.1 mg/mL primocin (InvivoGen, San Diego, CA, cat. ant-pm-2), 10% defined fetal bovine serum, heat inactivated (HyClone Laboratories Inc., Logan, UT, cat. SH30070.03HI), 50% L-WRN conditioned media (ATCC, cat. CRL-3276), 1.25 mM N-Acetyl-L-cysteine (Sigma-Aldrich, cat. A9165), 10 mM nicotinamide (Sigma-Aldrich, cat. N0636), 1X B-27 supplement (Thermo Fisher Scientific, cat. 17504044), 1X N-2 supplement (Thermo Fisher Scientific, cat. […]

[1] = second compound 0.0316 µM, first compound 0.0316 µM
[2] = second compound 0.0316 µM, first compound 0.1 µM
[3] = second compound 0.0316 µM, first compound 0.316 µM
[4] = second compound 0.0316 µM, first compound 1 µM
[5] = second compound 0.0316 µM, first compound 3.16 µM
[6] = second compound 0.0316 µM, first compound 10 µM
[7] = second compound 0.1 µM, first compound 0.0316 µM
[8] = second compound 0.1 µM, first compound 0.1 µM
[9] = second compound 0.1 µM, first compound 0.316 µM
[10] = second compound 0.1 µM, first compound 1 µM
[11] = second compound 0.1 µM, first compound 3.16 µM
[12] = second compound 0.1 µM, first compound 10 µM
[13] = second compound 0.316 µM, first compound 0.0316 µM
[14] = second compound 0.316 µM, first compound 0.1 µM
[15] = second compound 0.316 µM, first compound 0.316 µM
[16] = second compound 0.316 µM, first compound 1 µM
[17] = second compound 0.316 µM, first compound 3.16 µM
[18] = second compound 0.316 µM, first compound 10 µM
[19] = second compound 1 µM, first compound 0.0316 µM
[20] = second compound 1 µM, first compound 0.1 µM
[21] = second compound 1 µM, first compound 0.316 µM
[22] = second compound 1 µM, first compound 1 µM
[23] = second compound 1 µM, first compound 3.16 µM
[24] = second compound 1 µM, first compound 10 µM
[25] = second compound 3.16 µM, first compound 0.0316 µM
[26] = second compound 3.16 µM, first compound 0.1 µM
[27] = second compound 3.16 µM, first compound 0.316 µM
[28] = second compound 3.16 µM, first compound 1 µM
[29] = second compound 3.16 µM, first compound 3.16 µM
[30] = second compound 3.16 µM, first compound 10 µM
[31] = second compound 10 µM, first compound 0.0316 µM
[32] = second compound 10 µM, first compound 0.1 µM
[33] = second compound 10 µM, first compound 0.316 µM
[34] = second compound 10 µM, first compound 1 µM
[35] = second compound 10 µM, first compound 3.16 µM
[36] = second compound 10 µM, first compound 10 µM
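Also: luminescence signal used as surrogate measure of viable cells; spheroids exposed to compounds for seven days before readout.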
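For viability, T/C in this document: 100% = DMSO vehicle control viability as luminescence relative to vehicle.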

O=C(c1cc(Cc2n[nH]c(=O)c3ccccc23)ccc1F)N1CCN(C(=O)C2CC2)CC1 + COC1C(OC(N)=O)C(O)C(Oc2ccc3c(O)c(NC(=O)c4ccc(O)c(CC=C(C)C)c4)c(=O)oc3c2C)OC1(C)C
IC50 (second compound 0.0316 µM): 1.94 µM
IC50 (second compound 0.1 µM): 1.96 µM
IC50 (second compound 0.316 µM): 1.7 µM
IC50 (second compound 1 µM): 1.97 µM
IC50 (second compound 3.16 µM): 1.7 µM
IC50 (second compound 10 µM): 1.36 µM
viability, T/C [1]: 97.2%
viability, T/C [2]: 80.8%
viability, T/C [3]: 79.1%
viability, T/C [4]: 82.3%
viability, T/C [5]: 26.2%
viability, T/C [6]: 16.1%
viability, T/C [7]: 82.7%
viability, T/C [8]: 88.6%
viability, T/C [9]: 77.8%
viability, T/C [10]: 74.3%
viability, T/C [11]: 32.9%
viability, T/C [12]: 18.2%
viability, T/C [13]: 103%
viability, T/C [14]: 97.2%
viability, T/C [15]: 86.8%
viability, T/C [16]: 68.9%
viability, T/C [17]: 28.9%
viability, T/C [18]: 18.2%
viability, T/C [19]: 104%
viability, T/C [20]: 87.5%
viability, T/C [21]: 81.2%
viability, T/C [22]: 78.5%
viability, T/C [23]: 30.4%
viability, T/C [24]: 17.6%
viability, T/C [25]: 97.3%
viability, T/C [26]: 86.5%
viability, T/C [27]: 73.8%
viability, T/C [28]: 71.6%
viability, T/C [29]: 29.2%
viability, T/C [30]: 19%
viability, T/C [31]: 106%
viability, T/C [32]: 99.6%
viability, T/C [33]: 86.9%
viability, T/C [34]: 60.7%
viability, T/C [35]: 24.8%
viability, T/C [36]: 16.4%

O=c1[nH]cc(F)c(=O)[nH]1 + COC1C(OC(N)=O)C(O)C(Oc2ccc3c(O)c(NC(=O)c4ccc(O)c(CC=C(C)C)c4)c(=O)oc3c2C)OC1(C)C
IC50 (second compound 0.0316 µM): 9.58 µM
IC50 (second compound 0.1 µM): 7.31 µM
IC50 (second compound 0.316 µM): 6.05 µM
IC50 (second compound 1 µM): 9.05 µM
IC50 (second compound 3.16 µM): 7.96 µM
IC50 (second compound 10 µM): 6.66 µM
viability, T/C [1]: 114%
viability, T/C [2]: 111%
viability, T/C [3]: 108%
viability, T/C [4]: 84.5%
viability, T/C [5]: 61.6%
viability, T/C [6]: 49%
viability, T/C [7]: 116%
viability, T/C [8]: 111%
viability, T/C [9]: 105%
viability, T/C [10]: 96.1%
viability, T/C [11]: 57%
viability, T/C [12]: 47.6%
viability, T/C [13]: 96.7%
viability, T/C [14]: 98%
viability, T/C [15]: 97%
viability, T/C [16]: 78.1%
viability, T/C [17]: 62.9%
viability, T/C [18]: 40.9%
viability, T/C [19]: 86.1%
viability, T/C [20]: 104%
viability, T/C [21]: 96.4%
viability, T/C [22]: 82.3%
viability, T/C [23]: 70.5%
viability, T/C [24]: 47.9%
viability, T/C [25]: 99.2%
viability, T/C [26]: 98.8%
viability, T/C [27]: 93%
viability, T/C [28]: 84.1%
viability, T/C [29]: 75.9%
viability, T/C [30]: 43.4%
viability, T/C [31]: 89%
viability, T/C [32]: 97.6%
viability, T/C [33]: 93.8%
viability, T/C [34]: 85.4%
viability, T/C [35]: 57.7%
viability, T/C [36]: 45.8%

From PubChem BioAssay AID1963845 (Molecular Pharmacology Branch, DTP, NCI, 2024)
